Measurements from US9139615B2, “High-affinity, dimeric inhibitors of PSD-95 as efficient neuroprotectants against ischemic brain damage and for treatment of pain” (University of Copenhagen, priority 2011, dated 2015).
“Also recorded” adds a separate entry of the source.

What was measured:
Format in all cases: in vivo, mice
[1] = test system: CFA-induced mechanical allodynia/hyperalgesia; experiment: Complete Freund's adjuvant (CFA) inflammatory pain, von Frey test; conditions: for CFA-induced hyperalgesia: 0.1 mg/kg, given simultaneously with CFA
[2] = test system: long-term reference memory; experiment: Social transmission of food preference (STFP) test; conditions: 0.1 mg/kg (dose reducing hyperalgesia)
Description: STFP was conducted in two phases. […] A minimum of 2 and a maximum of 5 licking/sniffing interactions were set as criteria for appropriate acquisition of the odour cue. […] Second phase: following a 24-hour retention interval, the observer mice were placed individually in cages containing two trays of crushed food scented with cinnamon or cocoa, respectively. The amount eaten from the cued food over the novel food is taken as an index of memory for the previously cued food. […] Yet, experiments were designed in a balanced fashion to ensure that an equal number of mice within each treatment group were cued with cinnamon and cocoa, respectively.
(§1) Cognitive data: In the social transmission of food preference test, the preference for the cued food was expressed as a discrimination index, DI=(cued−novel)/(cued+novel). In the modified Y-maze, the preference for the novel arm was expressed as a discrimination index, DI=(time in novel−time in familiar)/(time in novel+time in familiar). STFP and Y-maze data were analysed by one-way ANOVA followed by Planned Comparisons was performed to assess treatment effects on the discrimination index.

attention = experiment: Modified Y-maze test of attention; conditions: 0.05 and 0.1 mg/kg
Description: Testing was carried out in a clear Plexiglass maze composed of 2 perpendicular arms connected to a runway. The 2 arms (available for exploration) and runway were 50 cm long and 8 cm wide, surrounded by clear Plexi-glass walls 30 cm high. Each arm met at a central platform equipped with black removable partitions, enabling arms to be opened and closed as desired. The whole maze was enclosed in a triangular black Plexiglass box (1×1×1 m). The walls of this outer box surrounding each exploration arm were covered with distinct optical cues, e.g., white horizontal or vertical lines. […] The cumulative time spent in each arm was recorded during this test session by an automated video tracking system (Ethovision, Noldus). A discrimination index (DI) was calculated for each mouse, defined as the difference in time spent in the novel and the familiar arm divided by the total time spent in the novel and the familiar arm during phase 2 testing, i.e. DI=(novel−familiar)/(novel+familiar).
as §1, with “STFP and Y-maze data were analysed by one-way ANOVA followed by Planned Comparisons was performed to assess treatment effects on the discrimination index.” left out

motor performance = experiment: Rotarod test of motor performance (side effects); conditions: 0.1 mg/kg, at 15, 30, 45 and 60 min
Description: Motor function was evaluated using an accelerating rotarod (MedAssociates, Inc., VT, USA). The rotarod (3.2 cm diameter) speed was increased from 4 to 40 rpm over a 300 s period with the minimum time possible to spend on the rod designated as 0 s and the maximum cut-off time set at 310 s. Each mouse was tested immediately prior to drug treatment (t=0), and again 15, 30, 45 and 60 minutes after drug treatment. When an animal fell off the rotating drum, a photobeam was automatically broken to record the amount of time spent on the rotating rod.
Motor performance: In the rotarod test, treatment effect on motor coordination was analysed using a two-way RM ANOVA, with treatment as the independent factor and time as repeated measure. Planned comparisons procedure was used to assess treatment effects over time.

For `C[C@]12N[C@H](Cc3ccccc31)c1ccccc12` [MK-801], the CFA-induced hyperalgesia ([1]; after 1 hour) was “significantly reversed the CFA-induced hyperalgesia”, the CFA-induced hyperalgesia ([1]; after 24 hours) was “significant reversal was still observed” and the CFA-induced mechanical hyperalgesia ([1]; administered concurrently with CFA, 1 hour and 24 hours after treatment) was “prevented the development of CFA-induced mechanical hyperalgesia”. For the same compound, the “discrimination index, social transmission of food preference” value [2] was “induced cognitive deficits; also recorded: significantly reduced the discrimination index”, the “discrimination index, modified Y-maze” value (attention) was “induced cognitive deficits; also recorded: discrimination index was reduced” and the “motor performance, time on the rotarod” value (motor performance) was “motor deficits; also recorded: significantly decreased time on the rotarod”.
